Measurements from patent publication US8822449B2, “Substituted aminoindanes and analogs thereof, and the pharmaceutical use thereof” (Sanofi, priority 2008, dated 2014).

Target: T1, sodium-proton exchanger of subtype 3 (NHE3) (Homo sapiens, UniProt P48764)
T1 construct: expressed in transfected cells
T1 sequence (P48764 26-834): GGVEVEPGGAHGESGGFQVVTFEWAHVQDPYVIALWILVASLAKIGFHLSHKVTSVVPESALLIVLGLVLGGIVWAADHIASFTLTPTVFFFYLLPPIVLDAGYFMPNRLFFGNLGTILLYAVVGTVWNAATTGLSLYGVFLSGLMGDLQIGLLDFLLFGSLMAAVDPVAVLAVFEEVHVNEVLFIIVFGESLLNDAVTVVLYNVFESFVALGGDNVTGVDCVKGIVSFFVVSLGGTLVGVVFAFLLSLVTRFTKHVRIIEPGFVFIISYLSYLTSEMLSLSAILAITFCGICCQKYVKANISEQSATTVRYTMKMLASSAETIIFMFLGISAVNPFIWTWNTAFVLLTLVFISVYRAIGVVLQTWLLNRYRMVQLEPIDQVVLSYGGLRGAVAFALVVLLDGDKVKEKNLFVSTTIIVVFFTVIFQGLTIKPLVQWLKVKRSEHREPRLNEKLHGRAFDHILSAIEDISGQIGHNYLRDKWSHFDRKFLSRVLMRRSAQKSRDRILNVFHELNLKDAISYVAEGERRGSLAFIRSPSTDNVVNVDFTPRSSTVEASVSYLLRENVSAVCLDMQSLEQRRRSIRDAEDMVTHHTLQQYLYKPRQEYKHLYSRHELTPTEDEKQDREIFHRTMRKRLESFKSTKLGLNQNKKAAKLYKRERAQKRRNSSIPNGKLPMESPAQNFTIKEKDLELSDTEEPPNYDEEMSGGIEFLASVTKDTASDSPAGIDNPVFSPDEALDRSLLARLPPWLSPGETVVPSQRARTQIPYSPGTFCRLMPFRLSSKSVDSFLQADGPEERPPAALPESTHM
Experiment: Recovery of intracellular pH (pHi) after acidification in LAP1 cells stably expressing NHE3 (BCECF fluorescence, FLIPR)
Assay type: cell-based
Details: LAP1 cells stably expressing NHE3; pH recovery after acidification; range 1 is % inhibition at 10 μM; read-out: Activity range (inhibitory effect on NHE3)

| SMILES | inhibition at 10 µM | IC50 |
| --- | --- | --- |
| Clc1cc(Cl)c2c(c1)[C@H](Oc1ccc(-n3cncn3)cc1)[C@@H](N1CCNCC1)C2 (racemic) [Example 276, 1-[rac-trans-(1,2)-4,6-dichloro-1-(4-[1,2,4]triazol-1-ylphenoxy)indan-2-yl]piperazine] |  | < 1 µM |
| NCC1CCN([C@@H]2Cc3ccccc3[C@H]2Oc2ccc(NC(=O)OCc3ccccc3)cc2)C1 (mixture of isomers) [Example 240, {4-[rac-trans-(1,2)-2-(3-aminomethylpyrrolidin-1-yl)indan-1-yloxy]phenyl}carbamic acid benzyl ester] |  | 1 to 10 µM |
| O=C1CCC(=O)N1c1ccc(O[C@H]2c3cc(Cl)cc(Cl)c3C[C@@H]2N2CC[C@@H](O)C2)c(Cl)c1 [Example 322, 1-{3-chloro-4-[(1S,2S)-4,6-dichloro-2-((R)-3-hydroxypyrrolidin-1-yl)indan-1-yloxy]phenyl}pyrrolidine-2,5-dione] |  | < 1 µM |
| CCc1nnc(C(C)C)n1-c1ccc(O[C@H]2c3cc(Cl)cc(F)c3C[C@@H]2N2CC[C@@H](O)C2)cc1 [Example 722, (R)-1-{trans-(1S,2S)-6-Chloro-1-[4-(3-ethyl-5-isopropyl-[1,2,4]triazol-4-yl)-phenoxy]-4-fluoro-indan-2-yl}-pyrrolidin-3-ol] |  | 1 to 10 µM |
| c1ccc2c(c1)C[C@@H](N1C[C@H]3CNC[C@H]3C1)[C@@H]2Oc1ccc(-n2ccnc2)cc1 (racemic) [Example 7, 2-[rac-trans-(1,2)-1-(4-imidazol-1-ylphenoxy)indan-2-yl]octahydropyrrolo[3,4-c]pyrrole] |  | 1 to 10 µM |
| c1ccc2c(c1)CC[C@H](N1CCOCC1)[C@H]2Oc1ccc2ccncc2c1 (racemic) [Example 588, 7-(rac-trans-(1,2)-2-morpholin-4-yl-1,2,3,4-tetrahydronaphthalen-1-yloxy)isoquinoline] | 20 to 50% |  |
| NC(=O)c1ccccc1O[C@H]1c2ccccc2CC[C@@H]1N1CCC[C@@H](N)C1 (racemic) [Example 368, 2-[rac-trans-(1,2)-2-((R)-3-aminopiperidin-1-yl)-1,2,3,4-tetrahydronaphthalen-1-yloxy]benzamide] |  | 1 to 10 µM |
| CC(=O)NCc1cccc(O[C@H]2c3ccccc3C[C@@H]2N2CCCC2)c1 (racemic) [Example 640, N-[3-(rac-trans-(1,2)-2-pyrrolidin-1-ylindan-1-yloxy)benzyl]acetamide] |  | < 1 µM |
| N[C@@H]1CCCN([C@H]2CCc3ccccc3[C@@H]2Oc2ccnc(Cl)c2)C1 (racemic) [Example 40, (R)-1-[rac-trans-(1,2)-1-(2-chloropyridin-4-yloxy)-1,2,3,4-tetrahydronaphthalen-2-yl]piperidin-3-ylamine] | 20 to 50% |  |
| N#CCc1cccc(O[C@H]2c3ccccc3CC[C@@H]2N2CCC[C@@H](N)C2)c1 (racemic) [Example 230, {3-[rac-trans-(1,2)-2-((R)-3-aminopiperidin-1-yl)-1,2,3,4-tetrahydronaphthalen-1-yloxy]phenyl}acetonitrile] | 20 to 50% |  |
| CCc1nc(C)cn1-c1ccc(O[C@H]2c3cc(Cl)cc(F)c3C[C@@H]2N2CC[C@@H](O)C2)cc1 [Example 719, (R)-1-{trans-(1S,2S)-6-Chloro-1-[4-(2-ethyl-4-methyl-imidazol-1-yl)-phenoxy]-4-fluoro-indan-2-yl}-pyrrolidin-3-ol] |  | 1 to 10 µM |
| NS(=O)(=O)c1ccc(O[C@H]2c3cc(Cl)cc(Cl)c3C[C@@H]2NC2CCCC2)c(F)c1 [Example 748, 4-(trans-(1S,2S)-4,6-Dichloro-2-cyclopentylamino-indan-1-yloxy)-3-fluoro-benzenesulfonamide] |  | 1 to 10 µM |
| CS(=O)(=O)c1ccc(O[C@@H]2c3cc(Cl)cc(Cl)c3C[C@H]2n2ccnc2)cc1 (racemic) [Example 278, 1-[rac-trans-(1,2)-4,6-dichloro-1-(4-methanesulfonylphenoxy)indan-2-yl]-1H-imidazole] |  | 1 to 10 µM |
| N#Cc1ccc(O[C@@H]2c3ccccc3C[C@H]2N2CCC(CN)CC2)c(Cl)c1 (racemic) [Example 547, 4-[rac-trans-(1,2)-2-(4-aminomethylpiperidin-1-yl)indan-1-yloxy]-3-chlorobenzonitrile] |  | 1 to 10 µM |
| CC(=O)Nc1cccc(O[C@H]2c3ccccc3C[C@@H]2N2CCC[C@@H](NCCC(F)(F)F)C2)c1 [Example 632, N-(3-{trans-(1S,2S)-2-[(R)-3-(3,3,3-trifluoropropylamino)piperidin-1-yl]indan-1-yloxy}-phenyl)acetamide] |  | < 1 µM |
| Cc1cn(-c2ccc(O[C@H]3c4cc(Cl)cc(F)c4C[C@@H]3N3CC[C@@H](O)C3)c(F)c2)c(C)n1 [Example 738, (R)-1-{trans-(1S,2S)-6-Chloro-1-[4-(2,4-dimethyl-imidazol-1-yl)-2-fluoro-phenoxy]-4-fluoro-indan-2-yl}-pyrrolidin-3-ol] |  | < 1 µM |

More lines, now with the values ahead:

| inhibition at 10 µM | IC50 | SMILES |
| --- | --- | --- |
| 20 to 50% |  | N[C@@H]1CCCN([C@H]2CCc3ccccc3[C@@H]2Oc2ccc(F)c(Cl)c2)C1 (racemic) [Example 52, (R)-1-[rac-trans-(1,2)-1-(3-chloro-4-fluorophenoxy)-1,2,3,4-tetrahydronaphthalen-2-yl]piperidin-3-ylamine] |
|  | 1 to 10 µM | Cc1nnc(C)n1-c1ccc(C(=O)O[C@H]2c3cc(Cl)cc(Cl)c3C[C@@H]2N2CC[C@@H](O)C2)c(Cl)c1 [Example 710, 2-Chloro-4-(3,5-dimethyl-[1,2,4]triazol-4-yl)-benzoic acid trans-(1S,2S)-4,6-dichloro-2-((R)-3-hydroxy-pyrrolidin-1-yl)-indan-1-yl ester] |
| 20 to 50% |  | N#Cc1ccc(O[C@H]2c3ccccc3CC[C@@H]2N2CCC[C@H](N)C2)cc1F (racemic) [Example 530, 4-[rac-trans-(1,2)-2-((S)-3-aminopiperidin-1-yl)-1,2,3,4-tetrahydronaphthalen-1-yloxy]-2-fluorobenzonitrile] |
|  | 1 to 10 µM | CC(=O)Nc1cccc(O[C@@H]2c3ccccc3C[C@H]2N2CCC(CN)CC2)c1 (racemic) [Example 688, N-{3-[rac-trans-(1,2)-2-(4-aminomethylpiperidin-1-yl)indan-1-yloxy]phenyl}acetamide] |
|  | < 1 µM | Cc1nnc(C)n1-c1ccc(O[C@H]2c3cc(Cl)cc(F)c3C[C@@H]2N2CC[C@@H](O)C2)c(Cl)c1 [Example 138, (R)-1-{trans-(1S,2S)-6-chloro-1-[2-chloro-4-(3,5-dimethyl-[1,2,4]triazol-4-yl)phenoxy]-4-fluoroindan-2-yl}pyrrolidin-3-ol] |
| 20 to 50% |  | N[C@@H]1CCCN([C@H]2CCc3ccccc3[C@@H]2Oc2ccc(C(F)(F)F)cc2)C1 (racemic) [Example 77, (R)-1-[rac-trans-(1,2)-1-(4-trifluoromethylphenoxy)-1,2,3,4-tetrahydronaphthalen-2-yl]piperidin-3-ylamine] |
| 20 to 50% |  | Cc1nc(C)c(-c2ccc(O[C@H]3c4cc(Cl)cc(Cl)c4C[C@@H]3N3CC[C@@H](O)C3)cc2)s1 [Example 125, (R)-1-{trans-(1S,2S)-4,6-dichloro-1-[4-(2,4-dimethyl-thiazol-5-yl)phenoxy]indan-2-yl}pyrrolidin-3-ol] |
|  | 1 to 10 µM | NCC1CCN([C@@H]2Cc3ccccc3[C@H]2Oc2ccc(N3CCNCC3)cc2)CC1 (racemic) [Example 619, C-{1-[rac-trans-(1,2)-1-(4-piperazin-1-ylphenoxy)indan-2-yl]piperidin-4-yl}methylamine] |
|  | 1 to 10 µM | CC(=O)Nc1cccc(O[C@@H]2c3ccccc3C[C@H]2N2CCC[C@H](N)C2)c1 (racemic) [Example 685, N-{3-[rac-trans-(1,2)-2-((S)-3-aminopiperidin-1-yl)indan-1-yloxy]phenyl}acetamide] |
|  | < 1 µM | Cc1nnc(C)n1-c1ccc(O[C@H]2c3cc(Cl)cc(Cl)c3C[C@@H]2N2CC[C@@H](C#N)C2)cc1 [Example 134, (R)-1-{trans-(1S,2S)-4,6-dichloro-1-[4-(3,5-dimethyl-[1,2,4]triazol-4-yl)phenoxy]indan-2-yl}pyrrolidine-3-carbonitrile] |
|  | 1 to 10 µM | COCCc1ccc(O[C@@H]2c3ccccc3C[C@H]2N2C[C@H]3CNC[C@H]3C2)cc1 (racemic) [Example 19, 2-{rac-trans-(1,2)-1-[4-(2-methoxyethyl)phenoxy]indan-2-yl}octahydropyrrolo[3,4-c]pyrrole] |
|  | 1 to 10 µM | c1ccc2c(c1)C[C@@H](N1C[C@H]3CNC[C@H]3C1)[C@@H]2Oc1ccc(N2CCNCC2)cc1 (racemic) [Example 17, 2-[rac-trans-(1,2)-1-(4-piperazin-1-ylphenoxy)indan-2-yl]octahydropyrrolo[3,4-c]pyrrole] |
|  | 1 to 10 µM | Cc1nnc(C)n1-c1ccc(O[C@H]2c3c(Cl)sc(Cl)c3CC[C@@H]2N2CCCC2)cc1 (racemic) [Example 496, 4-[4-(1,3-dichloro-5-pyrrolidin-1-yl-4,5,6,7-tetrahydrobenzo[c]thiophen-4-yloxy)phenyl]-3,5-dimethyl-4H-[1,2,4]triazole] |
